ChEMBL document CHEMBL4350981, “Salinomycin and its derivatives - A new class of multiple-targeted "magic bullets"” (Eur J Med Chem, 2019)
Converted amounts (≈) assume the structure as drawn.

How the values were obtained:
[1] = system: Staphylococcus aureus; assay: Antibacterial activity against methicillin-resistant Staphylococcus aureus; format: functional
[2] = system: Staphylococcus aureus; assay: Antibacterial activity against methicillin-sensitive Staphylococcus aureus; format: functional
[3] = system: Trypanosoma brucei; assay: Trypanocidal activity against bloodstream forms of Trypanosoma brucei […] incubated for 24 hrs followed by compound wash out after 72 hrs; format: functional
[4] = system: Bacillus anthracis; assay: Antibacterial activity against Bacillus anthracis; format: functional
[5] = system: Staphylococcus epidermidis; assay: Antibacterial activity against methicillin-resistant Staphylococcus epidermidis; format: functional
[6] = system: Mycolicibacterium phlei; assay: Antibacterial activity against Mycobacterium phlei; format: functional
[7] = system: Micrococcus luteus; assay: Antibacterial activity against Sarcina lutea; format: functional
[8] = system: Staphylococcus aureus; assay: Antibacterial activity against Staphylococcus aureus; format: functional
[9] = system: Bacillus subtilis; assay: Antibacterial activity against Bacillus subtilis; format: functional
[10] = system: Staphylococcus aureus; assay: Antibacterial activity against Staphylococcus aureus FDA 209P by agar diffusion method; format: functional
[11] = system: Human immunodeficiency virus 1; assay: Antiviral activity against HIV1 infected in U937 cells; format: functional, organism-based; settings: Human immunodeficiency virus 1, U-937
[12] = system: Influenza A virus H3N2; assay: Antiviral activity against Influenza A virus (A/Hong Kong/7/1987(H3N2)) infected in MDCK cells after 3 days by MTT assay; format: functional, organism-based; settings: 72 h
[13] = system: Xanthomonas oryzae; assay: […] activity against Xanthomonas oryzae by agar diffusion method; format: functional
[14] = system: Mycolicibacterium phlei; assay: Antimycobacterial activity against Mycobacterium phlei IPCR by agar diffusion method; format: functional
[15] = system: Alternaria kikuchiana; assay: Antimicrobial activity against Alternaria kikuchiana NIAS by agar diffusion method; format: functional
[16] = system: Mycobacteroides abscessus; assay: Antimycobacterial activity against Mycobacterium abscessus ATCC 19977; format: functional
[17] = system: Alternaria kikuchiana; assay: Antimicrobial activity against Alternaria kikuchiana A-14 by agar diffusion method; format: functional
[18] = system: Human immunodeficiency virus 1; assay: Antiviral activity against HIV1; format: functional, organism-based
[19] = system: Mycobacterium avium; assay: Antimycobacterial activity against Mycobacterium avium IFO 315 by agar diffusion method; format: functional
[20] = system: Pyricularia oryzae; assay: […] activity against Pyricularia oryzae by agar diffusion method; format: functional

Structure (SMILES) | MIC [1] [µg/mL] | MIC [5] [µg/mL] | MIC [6] [µg/mL] | MIC [7] [µg/mL] | MIC [8] [µg/mL] | MIC [9] [µg/mL] | also measured
CC[C@@H](C(=O)[C@@H](C)[C@@H](O)[C@H](C)[C@@H]1O[C@@H]([C@@H](CC)C(=O)Nc2ccccc2)CC[C@@H]1C)[C@H]1O[C@]2(C=C[C@@H](O)[C@]3(CC[C@@](C)([C@H]4CC[C@](O)(CC)[C@H](C)O4)O3)O2)[C@H](C)C[C@@H]1C | 4 (≈ 4.84 µM) | – | – | – | – | – | MIC [2]: 2 µg/mL (≈ 2.42 µM)
CCCCNC(=O)[C@H](CC)[C@H]1CC[C@H](C)[C@H]([C@@H](C)[C@H](O)[C@H](C)C(=O)[C@H](CC)[C@H]2O[C@]3(C=C[C@@H](O)[C@]4(CC[C@@](C)([C@H]5CC[C@](O)(CC)[C@H](C)O5)O4)O3)[C@H](C)C[C@@H]2C)O1 | – | – | – | – | – | – | GI50 [3]: 40 nM
CC[C@@H](C(=O)[C@@H](C)[C@@H](O)[C@H](C)[C@@H]1O[C@@H]([C@@H](CC)C(=O)On2nnc3ccccc32)CC[C@@H]1C)[C@H]1O[C@]2(C=C[C@@H](O)[C@]3(CC[C@@](C)([C@H]4CC[C@](O)(CC)[C@H](C)O4)O3)O2)[C@H](C)C[C@@H]1C | – | – | – | – | – | – | MIC [2]: 1 to 2 µg/mL (≈ 1.15 to 2.3 µM)
CC[C@@H](C(=O)[C@@H](C)[C@@H](O)[C@H](C)[C@@H]1O[C@@H]([C@@H](CC)C(=O)N(CC)CC)CC[C@@H]1C)[C@H]1O[C@]2(C=C[C@@H](O)[C@]3(CC[C@@](C)([C@H]4CC[C@](O)(CC)[C@H](C)O4)O3)O2)[C@H](C)C[C@@H]1C | – | 4 to 8 (≈ 4.96 to 9.92 µM) | – | – | – | – | MIC [4]: 1 µg/mL (≈ 1.24 µM)
CCCN(CCC)C(=O)[C@H](CC)[C@H]1CC[C@H](C)[C@H]([C@@H](C)[C@H](O)[C@H](C)C(=O)[C@H](CC)[C@H]2O[C@]3(C=C[C@@H](O)[C@]4(CC[C@@](C)([C@H]5CC[C@](O)(CC)[C@H](C)O5)O4)O3)[C@H](C)C[C@@H]2C)O1 | – | 4 to 8 (≈ 4.8 to 9.59 µM) | – | – | – | – | MIC [4]: 4 µg/mL (≈ 4.8 µM)
CC[C@@H](C(=O)[C@@H](C)[C@@H](O)[C@H](C)[C@@H]1O[C@@H]([C@@H](CC)C(=O)OC[C@H]2O[C@@H](n3cc(F)c(=O)[nH]c3=O)C[C@@H]2O)CC[C@@H]1C)[C@H]1O[C@]2(C=C[C@@H](O)[C@]3(CC[C@@](C)([C@H]4CC[C@](O)(CC)[C@H](C)O4)O3)O2)[C@H](C)C[C@@H]1C | 8.17 to 32.7 (≈ 8.34 to 33.4 µM) | 8.17 to 32.7 (≈ 8.34 to 33.4 µM) | – | – | – | – | –
CC[C@@H](C(=O)[C@@H](C)[C@@H](O)[C@H](C)[C@@H]1O[C@@H]([C@@H](CC)C(=O)OCC(F)(F)F)CC[C@@H]1C)[C@H]1O[C@]2(C=C[C@@H](O)[C@]3(CC[C@@](C)([C@H]4CC[C@](O)(CC)[C@H](C)O4)O3)O2)[C@H](C)C[C@@H]1C | 0.5 to 1 (≈ 0.6 to 1.2 µM) | 2 to 4 (≈ 2.4 to 4.8 µM) | – | – | – | – | GI50 [3]: 57 nM
CCCCC(=O)O[C@@H]1C=C[C@]2(O[C@H]([C@@H](CC)C(=O)[C@@H](C)[C@@H](O)[C@H](C)[C@@H]3O[C@@H]([C@@H](CC)C(=O)O)CC[C@@H]3C)[C@@H](C)C[C@H]2C)O[C@@]12CC[C@@](C)([C@H]1CC[C@](O)(CC)[C@H](C)O1)O2 | – | – | 3.12 (≈ 3.74 µM) | 1.56 (≈ 1.87 µM) | 0.78 (≈ 0.934 µM) | 1.56 (≈ 1.87 µM) | –
CC[C@@H](C(=O)[C@@H](C)[C@@H](O)[C@H](C)[C@@H]1O[C@@H]([C@@H](CC)C(=O)O)CC[C@@H]1C)[C@H]1O[C@]2(C=C[C@@H](OC(C)=O)[C@]3(CC[C@@](C)([C@H]4CC[C@](O)(CC)[C@H](C)O4)O3)O2)[C@H](C)C[C@@H]1C | – | – | 6.25 (≈ 7.88 µM) | 1.56 (≈ 1.97 µM) | 0.78 (≈ 0.984 µM) | 1.56 (≈ 1.97 µM) | –
CCC(=O)O[C@@H]1C=C[C@]2(O[C@H]([C@@H](CC)C(=O)[C@@H](C)[C@@H](O)[C@H](C)[C@@H]3O[C@@H]([C@@H](CC)C(=O)O)CC[C@@H]3C)[C@@H](C)C[C@H]2C)O[C@@]12CC[C@@](C)([C@H]1CC[C@](O)(CC)[C@H](C)O1)O2 | – | – | 1.56 (≈ 1.93 µM) | 0.78 (≈ 0.966 µM) | 0.78 (≈ 0.966 µM) | 0.78 (≈ 0.966 µM) | –
CCCC(=O)O[C@@H]1C=C[C@]2(O[C@H]([C@@H](CC)C(=O)[C@@H](C)[C@@H](O)[C@H](C)[C@@H]3O[C@@H]([C@@H](CC)C(=O)O)CC[C@@H]3C)[C@@H](C)C[C@H]2C)O[C@@]12CC[C@@](C)([C@H]1CC[C@](O)(CC)[C@H](C)O1)O2 | – | – | 1.56 (≈ 1.9 µM) | 0.78 (≈ 0.95 µM) | 0.78 (≈ 0.95 µM) | 0.78 (≈ 0.95 µM) | –
CC[C@@H](C(=O)[C@@H](C)[C@@H](O)[C@H](C)[C@@H]1O[C@@H]([C@@H](CC)C(=O)O)CC[C@@H]1C)[C@H]1O[C@]2(C=C[C@@H](OC=O)[C@]3(CC[C@@](C)([C@H]4CC[C@](O)(CC)[C@H](C)O4)O3)O2)[C@H](C)C[C@@H]1C | – | – | 12.5 (≈ 16 µM) | 3.12 (≈ 4.01 µM) | 1.56 (≈ 2 µM) | 3.12 (≈ 4.01 µM) | –
CC[C@@H](C(=O)[C@@H](C)[C@@H](O)[C@H](C)[C@@H]1O[C@@H]([C@@H](CC)C(=O)OCc2cc([N+](=O)[O-])cc([N+](=O)[O-])c2)CC[C@@H]1C)[C@H]1O[C@]2(C=C[C@@H](O)[C@]3(CC[C@@](C)([C@H]4CC[C@](O)(CC)[C@H](C)O4)O3)O2)[C@H](C)C[C@@H]1C | 8 to 16 (≈ 8.59 to 17.2 µM) | 4 to 8 (≈ 4.3 to 8.59 µM) | – | – | – | – | –
CC[C@@H](C(=O)[C@@H](C)[C@@H](O)[C@H](C)[C@@H]1O[C@@H]([C@@H](CC)C(=O)NCc2ccc(F)cc2)CC[C@@H]1C)[C@H]1O[C@]2(C=C[C@@H](O)[C@]3(CC[C@@](C)([C@H]4CC[C@](O)(CC)[C@H](C)O4)O3)O2)[C@H](C)C[C@@H]1C | 16 to 64 (≈ 18.6 to 74.6 µM) | 16 to 128 (≈ 18.6 to 149 µM) | – | – | – | – | –
O=C(N[C@H](CO)[C@H](O)c1ccc([N+](=O)[O-])cc1)C(Cl)Cl [CHLORAMPHENICOL] | – | – | – | – | – | – | MIC [10]: 3.12 µg/mL (≈ 9.66 µM)
CC[C@H]1OC(=O)[C@H](C)[C@@H](O[C@H]2C[C@@](C)(OC)[C@@H](O)[C@H](C)O2)[C@H](C)[C@@H](O[C@@H]2O[C@H](C)C[C@H](N(C)C)[C@H]2O)[C@](C)(O)C[C@@H](C)C(=O)[C@H](C)[C@@H](O)[C@]1(C)O [ERYTHROMYCIN] | – | – | – | – | – | – | MIC [10]: 3.12 µg/mL (≈ 4.25 µM)
CC[C@@H](C(=O)[C@@H](C)[C@@H](O)[C@H](C)[C@@H]1O[C@@H]([C@@H](CC)C(=O)O)CC[C@@H]1C)[C@H]1O[C@]2(C=C[C@@H](O)[C@]3(CC[C@@](C)([C@H]4CC[C@](O)(CC)[C@H](C)O4)O3)O2)[C@H](C)C[C@@H]1C [SALINOMYCIN] | 1 to 16 (≈ 1.33 to 21.3 µM) | 1 to 16 (≈ 1.33 to 21.3 µM) | 12.5 (≈ 16.6 µM) | 3.12 (≈ 4.15 µM) | 1.56 (≈ 2.08 µM) | 3.12 (≈ 4.15 µM) | EC50 [11]: 0.09 µg/mL (≈ 0.12 µM); EC50 [12]: 400 to 4300 nM; MIC [13]: 50 µg/mL (≈ 66.6 µM); MIC [14]: 12.5 µg/mL (≈ 16.6 µM); MIC [15]: 50 µg/mL (≈ 66.6 µM); MIC [16]: > 20 µg/mL; MIC [17]: 50 µg/mL (≈ 66.6 µM); MIC [4]: 1 µg/mL (≈ 1.33 µM); EC50 [18]: 0.4 µg/mL (≈ 0.533 µM); MIC [19]: 12.5 µg/mL (≈ 16.6 µM); MIC [20]: 25 µg/mL (≈ 33.3 µM); GI50 [3]: 180 nM; MIC [2]: 1 to 2 µg/mL (≈ 1.33 to 2.66 µM)
CN[C@@H]1[C@H](O[C@H]2[C@H](O[C@H]3[C@H](O)[C@@H](O)[C@H](N=C(N)N)[C@@H](O)[C@@H]3N=C(N)N)O[C@@H](C)[C@]2(O)C=O)O[C@@H](CO)[C@H](O)[C@H]1O [STREPTOMYCIN] | – | – | – | – | – | – | MIC [10]: 3.12 µg/mL (≈ 5.36 µM)
CN(C)[C@@H]1C(O)=C(C(N)=O)C(=O)[C@@]2(O)C(O)=C3C(=O)c4c(O)cccc4[C@@](C)(O)[C@H]3C[C@@H]12 [TETRACYCLINE] | – | – | – | – | – | – | MIC [10]: 3.12 µg/mL (≈ 7.02 µM)
